Measured values: ChEMBL document CHEMBL4842386, “Discovery of Reldesemtiv, a Fast Skeletal Muscle Troponin Activator for the Treatment of Impaired Muscle Function” (J Med Chem, 2021)
≈ marks a conversion by molar mass, not a printed value. Calls of active or inactive are those of the source. The rule behind the calls is not given here.

Assays:
Psoas muscle [1] = assay: Activation of fast twitch skeletal muscle in rabbit psoas muscle myofibrils by measuring increase in myofibril ATPase activity at 25% calcium concentration; format: functional; conditions: Oryctolagus cuniculus
Psoas muscle [2] = assay: Increase in psoas muscle force in rabbit skinned single fiber preparation at a calcium concentration that produces a force increase that is 25% of the maximum response in a control preparation by skinned fast skeletal muscle fiber assay; format: functional; conditions: Oryctolagus cuniculus
[3] = Metabolic stability in human liver microsomes assessed as intrinsic clearance measured after 90 mins by HPLC/MS/MS analysis; format: ADME, Microsome; conditions: read-out: CLH
[4] = Thermodynamic solubility of the compound; format: physicochemical; conditions: read-out: Therm_solubility
[5] = Intrinsic clearance in male rat hepatocytes; format: ADME, cell-based, Hepatocyte; conditions: read-out: CLH
[6] = Drug distribution in Sprague-Dawley rat extensor digitorum longus to blood ratio at 100 mg/kg, po by HPLC analysis; format: ADME, organism-based
[7] = Efflux ratio of apparent permeability in human Caco-2 cells; format: ADME, cell-based
[8] = Clearance in male Sprague-Dawley rat at 3 mg/kg, po administered as single dose measured up to 24 hrs by HPLC analysis; format: ADME, organism-based; conditions: in vivo
[9] = Metabolic stability in male rat liver microsomes assessed as intrinsic clearance measured after 90 mins by HPLC/MS/MS analysis; format: ADME, Microsome; conditions: read-out: CLH
hERG (KCNH2) = hERG (KCNH2) (Homo sapiens, UniProt Q12809); assay: Displacement of [3H]astemizole from human ERG expressed in HEK293 cells at 100 uM relative to control; format: cell-based; conditions: HEK293 cells that express hERG, probe [3H]astemizole
[10] = Oral bioavailability in male Sprague-Dawley rat at 3 mg/kg administered as single dose measured up to 24 hrs by HPLC analysis; format: ADME, organism-based; conditions: in vivo
[11] = Drug distribution in Sprague-Dawley rat brain to blood ratio at 100 mg/kg, po by HPLC analysis; format: ADME, organism-based
[12] = biological target: T1, Nuclear receptor subfamily 1 group I member 2 (Homo sapiens, UniProt O75469); assay: Transactivation of human PXR transfected in DPX2 cells assessed as CYP3A4 induction at 10 uM by luciferase reporter gene assay; format: ADME, cell-based; conditions: dpx2, 10 µM
T1 sequence (O75469 whole entry): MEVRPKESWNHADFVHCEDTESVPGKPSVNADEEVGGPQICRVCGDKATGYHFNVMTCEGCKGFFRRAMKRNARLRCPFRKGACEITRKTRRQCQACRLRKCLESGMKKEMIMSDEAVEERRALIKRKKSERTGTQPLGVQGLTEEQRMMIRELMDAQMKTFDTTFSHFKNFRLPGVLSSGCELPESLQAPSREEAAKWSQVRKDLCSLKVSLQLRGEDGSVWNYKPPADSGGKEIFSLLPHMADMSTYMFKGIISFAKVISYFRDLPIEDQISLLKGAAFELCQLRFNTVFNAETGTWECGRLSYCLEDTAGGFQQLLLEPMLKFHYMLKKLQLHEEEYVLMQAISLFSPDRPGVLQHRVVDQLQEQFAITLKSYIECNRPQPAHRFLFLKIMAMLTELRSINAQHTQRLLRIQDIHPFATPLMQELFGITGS

[13] = Drug distribution in Sprague-Dawley rat Soleus muscle to blood ratio at 100 mg/kg, po by HPLC analysis; format: ADME, organism-based
[14] = Plasma protein binding in male rat assessed as unbound fraction; format: ADME, cell-free
[15] = Drug distribution in Sprague-Dawley rat plasma to blood ratio at 100 mg/kg, po by HPLC analysis; format: ADME, organism-based; conditions: in vivo
[16] = Volume of distribution at steady state in male Sprague-Dawley rat at 3 mg/kg, po administered as single dose measured up to 24 hrs by HPLC analysis; format: ADME, organism-based; conditions: in vivo

Sequence of hERG (KCNH2) (Q12809 whole entry): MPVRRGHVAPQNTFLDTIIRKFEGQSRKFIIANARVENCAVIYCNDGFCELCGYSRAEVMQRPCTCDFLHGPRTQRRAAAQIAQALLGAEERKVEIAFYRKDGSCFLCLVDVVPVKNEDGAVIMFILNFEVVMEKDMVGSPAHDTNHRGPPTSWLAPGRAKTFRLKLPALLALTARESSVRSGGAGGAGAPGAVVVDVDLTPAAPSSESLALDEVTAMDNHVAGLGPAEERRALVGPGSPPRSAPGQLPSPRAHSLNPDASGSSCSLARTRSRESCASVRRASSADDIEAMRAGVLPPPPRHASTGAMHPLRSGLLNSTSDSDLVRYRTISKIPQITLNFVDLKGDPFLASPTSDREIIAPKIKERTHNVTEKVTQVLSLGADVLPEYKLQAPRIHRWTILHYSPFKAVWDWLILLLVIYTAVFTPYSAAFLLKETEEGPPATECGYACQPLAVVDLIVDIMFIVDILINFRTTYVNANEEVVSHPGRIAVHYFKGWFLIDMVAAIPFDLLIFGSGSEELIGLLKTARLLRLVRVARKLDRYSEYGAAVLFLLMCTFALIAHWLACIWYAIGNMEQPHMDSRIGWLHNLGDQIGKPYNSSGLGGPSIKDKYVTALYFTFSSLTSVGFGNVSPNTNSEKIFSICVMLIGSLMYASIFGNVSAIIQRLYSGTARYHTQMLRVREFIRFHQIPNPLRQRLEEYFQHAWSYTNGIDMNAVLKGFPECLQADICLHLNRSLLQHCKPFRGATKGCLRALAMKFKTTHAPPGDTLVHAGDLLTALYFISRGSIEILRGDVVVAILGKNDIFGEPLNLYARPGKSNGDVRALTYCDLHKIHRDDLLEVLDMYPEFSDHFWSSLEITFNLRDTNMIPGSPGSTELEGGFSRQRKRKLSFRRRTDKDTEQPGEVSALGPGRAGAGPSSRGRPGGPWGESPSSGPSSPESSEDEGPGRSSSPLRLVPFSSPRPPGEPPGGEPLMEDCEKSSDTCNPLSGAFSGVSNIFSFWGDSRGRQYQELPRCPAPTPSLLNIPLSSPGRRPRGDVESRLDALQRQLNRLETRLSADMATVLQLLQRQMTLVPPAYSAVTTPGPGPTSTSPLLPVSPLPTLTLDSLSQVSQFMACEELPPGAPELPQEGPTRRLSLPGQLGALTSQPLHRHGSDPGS

SMILES	EC40 (Psoas muscle [1])	EC30 (Psoas muscle [2])	CLint scaled [3]	also measured
CC(C)(CNc1cnc(-c2cccc(C(N)=O)c2)cn1)c1ccc(F)cc1	800 nM	inactive	–	–
NC(=O)c1cnc(-c2ccc(NCC3(c4ncccc4F)CCC3)nn2)o1	3900 nM	5400 nM	–	–
NC(=O)c1cccc(-c2ccc(NCC3(c4cnccn4)CCC3)nn2)c1	46100 nM	–	< 7 mL/min/kg	–
Fc1ccc(Cc2nsc(NCCc3ccc(Cl)cc3)n2)cc1	4300 nM	13700 nM	–	–
CN(CC1(c2ccccn2)CCC1)c1ccc(-c2cccc(C(N)=O)c2)nn1	> 49000 nM	–	–	–
CC(C)(CNc1nc(-c2cccc(C(N)=O)c2)ns1)c1ccc(F)cc1	500 nM	1400 nM	11 mL/min/kg	solubility thermodynamic [4]: < 27 µM
CC(CNc1nc(Cc2ccc(F)cc2)ns1)c1ccc(Cl)cc1 (stereo unspecified)	1100 nM	16700 nM	–	solubility thermodynamic [4]: < 27 µM
NC(=O)c1cnn(-c2cnc(NC[C@]3(c4ncccc4F)C[C@H](F)C3)nc2)c1	1200 nM	3300 nM	< 14 mL/min/kg	–
CC(C)(CNc1nc(-c2ccc(C(N)=O)cc2)ns1)c1ccc(F)cc1	500 nM	2300 nM	9 mL/min/kg	solubility thermodynamic [4]: < 27 µM
CC(C)CCNc1nc(Cc2ccc(F)cc2)ns1	> 49000 nM	–	–	–
CC(C)(CNc1ncc(-c2cccc(C(N)=O)c2)cn1)c1ccc(F)cc1	8700 nM	7800 nM	6 mL/min/kg	–
NC(=O)c1cc(-c2ccc(NCC3(c4ncccc4F)CCC3)nn2)ncn1	4400 nM	–	–	–
CC(C)(CNc1ccc(-c2cccc(C(N)=O)c2)cn1)c1ccc(F)cc1	500 nM	1500 nM	7 mL/min/kg	–
CC(C)(CNc1nc(Cc2ccc(F)cc2)ns1)c1ccc(Cl)cc1	600 nM	7400 nM	–	–
COCCCc1nsc(NCC(C)(C)c2ccc(F)cc2)n1	2500 nM	–	–	–
NC(=O)c1cccc(-c2ccc(NCC3(c4ncccc4F)CCC3)nn2)c1	300 nM	500 nM	11 mL/min/kg	–
CC(C)(CNc1ncns1)c1ccc(F)cc1	8400 nM	–	30 mL/min/kg	–
NC(=O)c1cnn(-c2ccc(NCC3(c4ncccc4F)CC(F)(F)C3)nn2)c1	2600 nM	4000 nM	–	–
NC(=O)c1cccc(-c2cnc(NC[C@]3(c4ncccc4F)C[C@H](F)C3)nc2)c1	300 nM	800 nM	< 14 mL/min/kg	CLint scaled [5]: 38 mL/min/kg; Kp [6]: 1.2; efflux ratio [7]: 1.8; CL/F [8]: 59 mL/min/kg; CLint scaled [9]: 38 mL/min/kg; inhibition at 100 µM (hERG (KCNH2)): 46%; bioavailability [10]: 21%; Kp [11]: 0.15; Activity [12]: 68%; Kp [13]: 1.16; fraction unbound [14]: 0.15; Ratio [15]: 1.85; Vdss [16]: 1.7 L/kg
CC(C)(CNc1ccc(-c2cccc(C(N)=O)c2)nn1)c1ccc(F)cc1	1200 nM	3000 nM	8 mL/min/kg	solubility thermodynamic [4]: 86 µM (≈ 31.3 µg/mL)
